Test results: patent publication US10881599B2, “Whitening composition including novel kaempferol-based compound derived from post-fermented tea” (AMOREPACIFIC CORPORATION, priority 2017, dated 2021)

Columns and labels:
mushroom tyrosinase = assay: Tyrosinase activity-inhibitory effect; type: biochemical; conditions: L-tyrosine, 20 minutes at 37° C., absorbance at 490 nm
Procedure: The tyrosinase activity-inhibitory effect of new material 33 was evaluated. Specifically, tyrosinase and tyrosine derived from mushrooms were obtained from Sigma Chemical. […] Tyrosinase activity was assessed by measuring the absorbance at 490 nm using a microplate reader (Bio-Rad 3550, Richmond, Calif., U.S.A.) after an enzyme reaction for 20 minutes at 37° C.

Mel-Ab cell line = assay: Melanin production-inhibitory effect (Dooley's method); type: cell-based, C57BL/6; conditions: Mel-Ab cells, melanin after 5 days, absorbance at 400 nm
skin = assay: Human repeated insult patch test (HRIPT), skin accumulation stimulation; type: in vivo; set-up: key to Skin reactivity (ICDRG criteria): −: negative (no response); ±: doubtful or slight erythema, etc.; +: weak reaction (which is accompanied with no phlyctenule), erythema, papule; ++: severe reaction (which is accompanied with phlyctenule), erythema, papule, phlyctenule; +++: strong reaction, bullae reaction; conditions: for Number of subjects with ±, +, or ++ reactivity, 1st: 1st patch; for Number of subjects with ±, +, or ++ reactivity, 2nd: 2nd patch; for Number of subjects with ±, +, or ++ reactivity, 3rd: 3rd patch; for Number of subjects with ±, +, or ++ reactivity, 4th: 4th patch; for Number of subjects with ±, +, or ++ reactivity, 5th: 5th patch; for Number of subjects with ±, +, or ++ reactivity, 6th: 6th patch; for Number of subjects with ±, +, or ++ reactivity, 7th: 7th patch; for Number of subjects with ±, +, or ++ reactivity, 8th: 8th patch; for Average reactivity: 9 patches, 15 subjects, less than 3 is considered stable; for Number of subjects with ±, +, or ++ reactivity, 9th: 9th patch
Procedure: Human repeated insult patch tests (HRIPT) were performed to confirm the skin accumulation stimulation of the kaempferol3-O-[2-O″-(E)-p-coumaroyl][beta-D-glucopyranosyl-(1→3)-O-alpha-L-rhamnopyranosyl-(1→6)-O-beta-D-glucopyranoside] and to calculate the concentration range available for the skin.
Specifically, 15 healthy adult subjects were randomly selected, and the test composition (the skin composition including an emulsifier, a stabilizer, purified water, etc. in addition to the compound) containing 0.5 wt %, 1 wt %, and 3 wt % of the compound was added dropwise by 20 μl per chamber (IQ chamber, Epitest Ltd, Finland). After 24 hours from patching the upper right part of the back of a subject, it was replaced with the new patch. A total of 9 patches were conducted, three times a week for total 3 weeks, in such manner, the skin reactions before and after patch were examined every time, and the skin reactions until 48 hours after removing the final patch were observed, and the average reactivity was observed.
The skin response was determined according to the criteria of the International Contact Dermatitis Research Group (ICDRG). ‘New material 33’ in the table above is kaempferol3-O-[2-O″-(E)-p-coumaroyl][beta-D-glucopyranosyl-(1→3)-O-alpha-L-rhamnopyranosyl-(1→6)-O-beta-D-glucopyranoside].

SMILES: C[C@@H]1O[C@@H](OC[C@H]2O[C@@H](Oc3c(-c4ccc(O)cc4)oc4cc(O)cc(O)c4c3=O)[C@H](OC(=O)/C=C/c3ccc(O)cc3)[C@@H](O)[C@@H]2O)[C@H](O)[C@H](O[C@@H]2O[C@H](CO)[C@@H](O)[C@H](O)[C@H]2O)[C@H]1O [new material 33, kaempferol3-O-[2-O″-(E)-p-coumaroyl][beta-D-glucopyranosyl-(1→3)-O-alpha-L-rhamnopyranosyl-(1→6)-O-beta-D-glucopyranoside]]
- Tyrosinase activity-inhibitory effect IC50 (mushroom tyrosinase): 11 ppm
- Melanin production-inhibitory effect IC50 (Mel-Ab cell line): 15.7 ppm
- Skin reactivity (ICDRG criteria) (skin; 0.5 wt %, 1 wt % and 3 wt %, all subjects, all patches): −
- Number of subjects with ±, +, or ++ reactivity, 1st (skin; 0.5 wt %, line 1 of 3 (±)): 0 person
- Number of subjects with ±, +, or ++ reactivity, 1st (skin; 0.5 wt %, line 2 of 3 (+)): 0 person
- Number of subjects with ±, +, or ++ reactivity, 1st (skin; 0.5 wt %, line 3 of 3 (++)): 0 person
- Number of subjects with ±, +, or ++ reactivity, 2nd (skin; 0.5 wt %, line 1 of 3 (±)): 0 person
- Number of subjects with ±, +, or ++ reactivity, 2nd (skin; 0.5 wt %, line 2 of 3 (+)): 0 person
- Number of subjects with ±, +, or ++ reactivity, 2nd (skin; 0.5 wt %, line 3 of 3 (++)): 0 person
- Number of subjects with ±, +, or ++ reactivity, 3rd (skin; 0.5 wt %, line 1 of 3 (±)): 0 person
- Number of subjects with ±, +, or ++ reactivity, 3rd (skin; 0.5 wt %, line 2 of 3 (+)): 0 person
- Number of subjects with ±, +, or ++ reactivity, 3rd (skin; 0.5 wt %, line 3 of 3 (++)): 0 person
- Number of subjects with ±, +, or ++ reactivity, 4th (skin; 0.5 wt %, line 1 of 3 (±)): 0 person
- Number of subjects with ±, +, or ++ reactivity, 4th (skin; 0.5 wt %, line 2 of 3 (+)): 0 person
- Number of subjects with ±, +, or ++ reactivity, 4th (skin; 0.5 wt %, line 3 of 3 (++)): 0 person
- Number of subjects with ±, +, or ++ reactivity, 5th (skin; 0.5 wt %, line 1 of 3 (±)): 0 person
- Number of subjects with ±, +, or ++ reactivity, 5th (skin; 0.5 wt %, line 2 of 3 (+)): 0 person
- Number of subjects with ±, +, or ++ reactivity, 5th (skin; 0.5 wt %, line 3 of 3 (++)): 0 person
- Number of subjects with ±, +, or ++ reactivity, 6th (skin; 0.5 wt %, line 1 of 3 (±)): 0 person
- Number of subjects with ±, +, or ++ reactivity, 6th (skin; 0.5 wt %, line 2 of 3 (+)): 0 person
- Number of subjects with ±, +, or ++ reactivity, 6th (skin; 0.5 wt %, line 3 of 3 (++)): 0 person
- Number of subjects with ±, +, or ++ reactivity, 7th (skin; 0.5 wt %, line 1 of 3 (±)): 0 person
- Number of subjects with ±, +, or ++ reactivity, 7th (skin; 0.5 wt %, line 2 of 3 (+)): 0 person
- Number of subjects with ±, +, or ++ reactivity, 7th (skin; 0.5 wt %, line 3 of 3 (++)): 0 person
- Number of subjects with ±, +, or ++ reactivity, 8th (skin; 0.5 wt %, line 1 of 3 (±)): 0 person
- Number of subjects with ±, +, or ++ reactivity, 8th (skin; 0.5 wt %, line 2 of 3 (+)): 0 person
- Number of subjects with ±, +, or ++ reactivity, 8th (skin; 0.5 wt %, line 3 of 3 (++)): 0 person
- Average reactivity (skin; 0.5 wt %): 0
- Number of subjects with ±, +, or ++ reactivity, 9th (skin; 0.5 wt %, line 1 of 3 (±)): 0 person
- Number of subjects with ±, +, or ++ reactivity, 9th (skin; 0.5 wt %, line 2 of 3 (+)): 0 person
- Number of subjects with ±, +, or ++ reactivity, 9th (skin; 0.5 wt %, line 3 of 3 (++)): 0 person
- Number of subjects with ±, +, or ++ reactivity, 1st (skin; 1 wt %, line 1 of 3 (±)): 0 person
- Number of subjects with ±, +, or ++ reactivity, 1st (skin; 1 wt %, line 2 of 3 (+)): 0 person
- Number of subjects with ±, +, or ++ reactivity, 1st (skin; 1 wt %, line 3 of 3 (++)): 0 person
- Number of subjects with ±, +, or ++ reactivity, 2nd (skin; 1 wt %, line 1 of 3 (±)): 0 person
- Number of subjects with ±, +, or ++ reactivity, 2nd (skin; 1 wt %, line 2 of 3 (+)): 0 person
- Number of subjects with ±, +, or ++ reactivity, 2nd (skin; 1 wt %, line 3 of 3 (++)): 0 person
- Number of subjects with ±, +, or ++ reactivity, 3rd (skin; 1 wt %, line 1 of 3 (±)): 0 person
- Number of subjects with ±, +, or ++ reactivity, 3rd (skin; 1 wt %, line 2 of 3 (+)): 0 person
- Number of subjects with ±, +, or ++ reactivity, 3rd (skin; 1 wt %, line 3 of 3 (++)): 0 person
- Number of subjects with ±, +, or ++ reactivity, 4th (skin; 1 wt %, line 1 of 3 (±)): 0 person
- Number of subjects with ±, +, or ++ reactivity, 4th (skin; 1 wt %, line 2 of 3 (+)): 0 person
- Number of subjects with ±, +, or ++ reactivity, 4th (skin; 1 wt %, line 3 of 3 (++)): 0 person
- Number of subjects with ±, +, or ++ reactivity, 5th (skin; 1 wt %, line 1 of 3 (±)): 0 person
- Number of subjects with ±, +, or ++ reactivity, 5th (skin; 1 wt %, line 2 of 3 (+)): 0 person
- Number of subjects with ±, +, or ++ reactivity, 5th (skin; 1 wt %, line 3 of 3 (++)): 0 person
- Number of subjects with ±, +, or ++ reactivity, 6th (skin; 1 wt %, line 1 of 3 (±)): 0 person
- Number of subjects with ±, +, or ++ reactivity, 6th (skin; 1 wt %, line 2 of 3 (+)): 0 person
- Number of subjects with ±, +, or ++ reactivity, 6th (skin; 1 wt %, line 3 of 3 (++)): 0 person
- Number of subjects with ±, +, or ++ reactivity, 7th (skin; 1 wt %, line 1 of 3 (±)): 0 person
- Number of subjects with ±, +, or ++ reactivity, 7th (skin; 1 wt %, line 2 of 3 (+)): 0 person
- Number of subjects with ±, +, or ++ reactivity, 7th (skin; 1 wt %, line 3 of 3 (++)): 0 person
- Number of subjects with ±, +, or ++ reactivity, 8th (skin; 1 wt %, line 1 of 3 (±)): 0 person
- Number of subjects with ±, +, or ++ reactivity, 8th (skin; 1 wt %, line 2 of 3 (+)): 0 person
- Number of subjects with ±, +, or ++ reactivity, 8th (skin; 1 wt %, line 3 of 3 (++)): 0 person
- Average reactivity (skin; 1 wt %): 0
- Number of subjects with ±, +, or ++ reactivity, 9th (skin; 1 wt %, line 1 of 3 (±)): 0 person
- Number of subjects with ±, +, or ++ reactivity, 9th (skin; 1 wt %, line 2 of 3 (+)): 0 person
- Number of subjects with ±, +, or ++ reactivity, 9th (skin; 1 wt %, line 3 of 3 (++)): 0 person
- Number of subjects with ±, +, or ++ reactivity, 1st (skin; 3 wt %, line 1 of 3 (±)): 0 person
- Number of subjects with ±, +, or ++ reactivity, 1st (skin; 3 wt %, line 2 of 3 (+)): 0 person
- Number of subjects with ±, +, or ++ reactivity, 1st (skin; 3 wt %, line 3 of 3 (++)): 0 person
- Number of subjects with ±, +, or ++ reactivity, 2nd (skin; 3 wt %, line 1 of 3 (±)): 0 person
- Number of subjects with ±, +, or ++ reactivity, 2nd (skin; 3 wt %, line 2 of 3 (+)): 0 person
- Number of subjects with ±, +, or ++ reactivity, 2nd (skin; 3 wt %, line 3 of 3 (++)): 0 person
- Number of subjects with ±, +, or ++ reactivity, 3rd (skin; 3 wt %, line 1 of 3 (±)): 0 person
- Number of subjects with ±, +, or ++ reactivity, 3rd (skin; 3 wt %, line 2 of 3 (+)): 0 person
- Number of subjects with ±, +, or ++ reactivity, 3rd (skin; 3 wt %, line 3 of 3 (++)): 0 person
- Number of subjects with ±, +, or ++ reactivity, 4th (skin; 3 wt %, line 1 of 3 (±)): 0 person
- Number of subjects with ±, +, or ++ reactivity, 4th (skin; 3 wt %, line 2 of 3 (+)): 0 person
- Number of subjects with ±, +, or ++ reactivity, 4th (skin; 3 wt %, line 3 of 3 (++)): 0 person
- Number of subjects with ±, +, or ++ reactivity, 5th (skin; 3 wt %, line 1 of 3 (±)): 0 person
- Number of subjects with ±, +, or ++ reactivity, 5th (skin; 3 wt %, line 2 of 3 (+)): 0 person
- Number of subjects with ±, +, or ++ reactivity, 5th (skin; 3 wt %, line 3 of 3 (++)): 0 person
- Number of subjects with ±, +, or ++ reactivity, 6th (skin; 3 wt %, line 1 of 3 (±)): 0 person
- Number of subjects with ±, +, or ++ reactivity, 6th (skin; 3 wt %, line 2 of 3 (+)): 0 person
- Number of subjects with ±, +, or ++ reactivity, 6th (skin; 3 wt %, line 3 of 3 (++)): 0 person
- Number of subjects with ±, +, or ++ reactivity, 7th (skin; 3 wt %, line 1 of 3 (±)): 0 person
- Number of subjects with ±, +, or ++ reactivity, 7th (skin; 3 wt %, line 2 of 3 (+)): 0 person
- Number of subjects with ±, +, or ++ reactivity, 7th (skin; 3 wt %, line 3 of 3 (++)): 0 person
- Number of subjects with ±, +, or ++ reactivity, 8th (skin; 3 wt %, line 1 of 3 (±)): 0 person
- Number of subjects with ±, +, or ++ reactivity, 8th (skin; 3 wt %, line 2 of 3 (+)): 0 person
- Number of subjects with ±, +, or ++ reactivity, 8th (skin; 3 wt %, line 3 of 3 (++)): 0 person
- Average reactivity (skin; 3 wt %): 0
- Number of subjects with ±, +, or ++ reactivity, 9th (skin; 3 wt %, line 1 of 3 (±)): 0 person
- Number of subjects with ±, +, or ++ reactivity, 9th (skin; 3 wt %, line 2 of 3 (+)): 0 person
- Number of subjects with ±, +, or ++ reactivity, 9th (skin; 3 wt %, line 3 of 3 (++)): 0 person
